Assay [1] is described as follows: Selectivity index based on the ratio of CC50 to EC50. The class given is functional.
Assay [2] deals with MT4. Kind of assay: Tested for 50% effective concentration based on the inhibition of HIV-I induced cytopathic effect in MT-4 cells. In kind it is functional, cell-based. Particulars: Homo sapiens. On the technique in general: Damage to the host cells serves as the signal in cytopathic effect assays.
Assay [3] relates to MT4. Kind of assay: Tested for 50% cytotoxic concentration based on the reduction of viability in mock-infected MT-4 cells. Particulars: Homo sapiens. The class given is functional.

Consider `CCCN(C)C(=O)Oc1nsnc1-c1c(Cl)cccc1Cl`, for which the SI in assay [1] amounted to 10000.

Take `Cc1cn([C@H]2C[C@H](N=[N+]=[N-])[C@@H](CO)O2)c(=O)[nH]c1=O` [ZIDOVUDINE]: the SI in assay [1] was determined as 800. In the assay with MT4 [2], the midpoint of the response, the EC50, lay at 0.004 µM. In addition, the CC50 – broadly, the concentration giving 50% cytotoxicity – in the assay on MT4 [3] is 3.2 µM.

`CN(C)C(=O)Oc1nsnc1-c1ccccc1`: the SI in assay [1] turned out to be 8. For the same molecule, the EC50 (commonly the concentration that produces a half-maximal response) in the assay with MT4 [2] amounted to 5.6 µM. Besides, the CC50 with MT4 [3] was 46.8 µM.

As for `CCCN(C)C(=O)Oc1no[n+]([O-])c1-c1c(Cl)cccc1Cl`, the SI in assay [1] worked out at 72. In the assay with MT4 [2], this molecule showed an EC50 of 0.12 µM. This molecule registered a CC50 in the assay with MT4 [3] of 8.6 µM.

As for `CCCN(C)C(=O)Oc1nonc1-c1ccccc1`, in assay [1], the SI was determined as 6.5. Moreover, the EC50 in the assay with MT4 [2] was determined as 2 µM. The 50% cytotoxic concentration (CC50) with MT4 [3] turned out to be 13 µM.

For the molecule `CCCN(C)C(=O)Oc1no[n+]([O-])c1-c1ccccc1`, the SI in assay [1] worked out at 1. For the same molecule, the response in the assay with MT4 [2] was half-maximal at 20 µM (EC50). For the same molecule, it took 25 µM to reach half-maximal cytotoxicity in the assay with MT4 [3] (CC50).

The record behind these values is ChEMBL document CHEMBL1129700, “Utilization of wieland furoxan synthesis for preparation of 4-aryl-1,2,5-oxadiazole-3-yl carbamate derivatives having potent anti-HIV activity” (Bioorg Med Chem Lett, 1996).
